# Measurements: US20140045807A2, “THE USE OF 3-METHOXY-PREGNENOLONE FOR THE PREPARATION OF A DRUG FOR TREATING A TRAUMATIC BRAIN INJURY” (priority 2004, published 2014)
# Assays:
# [1] = target: purified tubulin and MAP2 (Homo sapiens, UniProt P11137); assay: MAP2-induced polymerization of microtubules in vitro (optical density at 345 nm); assay type: biochemical; details: for Activity (increase in optical density at 345 nm): purified tubulin and MAP2, 37° C., GTP; for effect on microtubule polymerization: MAP2 and tubulin with GTP, 37° C.
# Method: Purified MAP2 and tubulin are mixed in the presence of GTP at 4° C. in a spectrophotometer cuvette. Polymerization is induced by heating at 37° C. and is followed by the increase in optical density (OD) which indicates the quantity of polymers formed.
# This in vitro test measures the effect of molecules on the MAP2-induced polymerization of microtubules. This polymerization occurs when MAP2 proteins and tubulin are mixed at adequate concentrations in the presence of GTP. It is accompanied by an increase in optical density measured at 345 nm for 15 to 30 minutes with a UNICON spectrophotometer thermostated at 37° C. (FIG. 1).
# Activity is measured by the increase in optical density at 345 nm of a mixture of purified tubulin and MAP2, incubated at 37° C. in the presence of GTP.
# MAP2 = MAP2 (Homo sapiens, UniProt P11137); assay: Binding (affinity) by displacement of PREG-^3H
# Method: Binding (affinity) is measured by the displacement of PREG-^3H.
# [2] = system: α-tubulin forms (Tyr/Glu-Tub, Acet-Tub) in rat hippocampus; assay: Microtubule dynamics in rat hippocampus after single administration; assay type: in vivo; details: 10 mg/kg subcutaneously, 3 h following injection
# Text: Mean±SEM, n=6 per group. **p<0.01, *[…] vs sesame oil.
# The effects produced by neurosteroids were compared with those produced by acute administration of the antidepressant drug fluoxetine (selective serotonin reuptake inhibitor; SSRI).
# [3] = target: T1, human progesterone receptor(PR) (Homo sapiens, UniProt P06401); assay: Test of progesterone receptor agonist activity (luciferase transactivation, HEK293T); assay type: cell-based; details: increasing amounts, 24 hours
# T1 construct: expressed in transfected cells; host or cells: HEK293T
# T1 sequence (P06401 1-933): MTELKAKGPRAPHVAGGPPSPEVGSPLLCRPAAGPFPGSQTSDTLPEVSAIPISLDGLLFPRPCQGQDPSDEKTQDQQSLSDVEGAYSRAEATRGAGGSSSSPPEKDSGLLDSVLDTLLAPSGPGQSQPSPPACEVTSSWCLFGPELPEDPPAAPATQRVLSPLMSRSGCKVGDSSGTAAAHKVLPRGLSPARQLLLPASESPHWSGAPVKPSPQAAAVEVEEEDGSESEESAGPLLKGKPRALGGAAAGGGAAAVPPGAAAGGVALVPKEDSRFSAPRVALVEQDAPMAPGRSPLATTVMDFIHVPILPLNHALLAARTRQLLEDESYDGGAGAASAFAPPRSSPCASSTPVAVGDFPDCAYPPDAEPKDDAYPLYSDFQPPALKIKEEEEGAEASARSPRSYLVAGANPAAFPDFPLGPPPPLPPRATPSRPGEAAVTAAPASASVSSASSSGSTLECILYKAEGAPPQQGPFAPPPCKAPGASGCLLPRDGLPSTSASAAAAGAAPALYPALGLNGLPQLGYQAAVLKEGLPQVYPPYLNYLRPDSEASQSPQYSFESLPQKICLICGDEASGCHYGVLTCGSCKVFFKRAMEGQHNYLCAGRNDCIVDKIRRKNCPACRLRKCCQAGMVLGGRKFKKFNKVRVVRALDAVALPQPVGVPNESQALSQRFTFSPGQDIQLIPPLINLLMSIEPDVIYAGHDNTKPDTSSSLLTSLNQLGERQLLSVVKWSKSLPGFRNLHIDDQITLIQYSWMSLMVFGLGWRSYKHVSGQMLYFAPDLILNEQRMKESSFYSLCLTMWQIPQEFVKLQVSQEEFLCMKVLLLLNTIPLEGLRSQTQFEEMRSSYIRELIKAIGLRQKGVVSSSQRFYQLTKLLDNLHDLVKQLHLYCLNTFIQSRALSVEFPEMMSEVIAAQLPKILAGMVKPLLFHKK
# Method: The main experimental setting used is the following: HEK293T cells were transiently transfected, using calcium phosphate precipitation technology, with expression vectors pSG5hPR (which permits expression of human progesterone receptor(PR)), pFC31-luc (contains the luciferase gene under the control of the MMTV promoter, which is in turn activated by binding of a progestin to progesterone receptor) and pcbetagal (which permits expression of betagalactosidase), and cultured during 24 hours with increasing amounts of various compositions: • 1. […] Test of progesterone receptor […] activity: transfected cells were cultured with progesterone (1 nM) and increasing amounts of RU486 (a well-known progesterone receptor antagonist) or 3-methoxy-pregnenolone. • With this setting, a compound with progesterone receptor antagonist activity competes with progesterone for the occupation of progesterone receptor and results in a progressive loss of transactivation activity when the amount of this compound is increased compared to progesterone.
# PC12 cells [4] = assay: Neuritic growth / sprouting in PC12 cells with NGF; assay type: cell-based, rat; details: 30 μM, after 3 days of culture, with NGF
# Method: Each molecule was tested in three culture wells. Measurements were taken for 200 cells per well using Scion Image software.
# Neurite (neurite) length was measured for 200 cells per well after 2, 5, and 8 days of culture.
# Stimulation of neuritic sprouting is conducted on PC12 cells differentiated in the presence of NGF (10 ng/ml) and the steroid being tested (30 μM) for 3 days. For each condition, the average length of the longest 200 neurites in each cell is measured simultaneously for 3 cultures.
# PC12 cells [5] = assay: Retraction of neurites induced by nocodazole; assay type: cell-based, rat; details: pretreated one hour at 30 μM, nocodazole 15 minutes
# Text: FIG. 5: Retraction of neurites (neurites) induced by nocodazole.
# Nocodazole is a microtubule depolymerizing agent. Its addition to PC12 cell cultures, differentiated in the presence of NGF, causes neurites to retract as a result of the depolymerization of their microtubules.
# [6] = system: human neuroblastoma HS-SY5Y cells; assay: Cytotoxicity of okadaic acid, steroid protection (LDH release); assay type: cell-based; details: 24 hours, simultaneous addition, increasing concentrations
# Text: FIG. 6: Toxicity of okadaic acid. Steroid protection. […] Cell death was indicated by the release of lactate dehydrogenase (LDH) in the culture medium.
# Okadaic acid is a protein phosphatase inhibiter. Thus, the hyperphosphorylation of tau protein is implicated in microtubule depolymerization and in human neuroblastoma HS-SY5Y cell death. The exposure of SY5Y cell cultures to okadaic acid does in fact cause significant cell death.
# PC12 cell line = assay: Cellular toxicity test; assay type: cell-based, rat; details: concentrations as high as solubility limits (approximately 50 μM)
# Method: Cellular toxicity tests are carried out routinely on the PC12 cell line.
# [7] = system: transgenic mice expressing the longest human tau protein isoform; assay: RotaRod test in transgenic mice expressing the longest human tau protein isoform; assay type: in vivo, mouse; details: subcutaneous implant releasing 0.38 mg of steroid per day for 90 days
# Text: FIG. 8: Effect of molecule 43B on the motor incoordination of transgenic mice expressing the longest isoform of human tau protein in their neurons. […] The maximum speed of rotation of the RotaRod drum before the […] falls is a measurement of motor coordination (higher values correspond to a better treatment effect).
# In order to evaluate the therapeutic potential of 43B to treat Alzheimer-type neurodegenerative diseases, a homozygous transgenic line of mice, such as described by Götz (EMBO J. 1995; 14(7):1304-13), can be used.
# These mice express the longest human tau protein isoform. They present symptoms of neurological dysfunction expressed as muscular weakness and a reduction in motor coordination which correlate histologically with the appearance of abnormal neurites and hyperphosphorylated tau proteins as is seen in Alzheimer's disease. This pathological phosphorylation decreases the affinity of tau for microtubules and favors its aggregation.
# A breeding program was undertaken at Bicêtre and genotyping made it possible to select mice homozygous for the transgene. […] These implants released 0.38 mg of steroid per day for 90 days. The progression of motor incoordination was followed by repeated RotaRod tests.
# [8] = system: Sprague Dawley rats in the FST; assay: Forced swimming test (FST); assay type: in vivo, rat; details: 10 mg/kg subcutaneously, 24, 5, 1 h before testing
# Text: (A) 3-methoxy-PREG (43B) decreased rat immobility in the FST showing antidepressant activity. Results are expressed as mean±SEM (n=6-14). One-way ANOVA: Treatment (F5, 46: 4.30 P<0.01). ***P<0.001, *P<0.05 vs. water and sesame oil (Fisher LSD test). […] Results are expressed as mean±SEM (n=6-14). One-way ANOVA: Treatment (F5, 46: 3.57 P<0.01). **P<0.01, *P<0.05 vs. water and sesame oil (Fisher LSD test). […] One-way ANOVA: Treatment (F5, 46: 3.57 P<0.01). **P<0.01, *P<0.05 vs. water and sesame oil (Fisher LSD test).
# Drugs were administered following the traditional dosing regimen used in the FST consisting of three injections: 24, 5, 1 h before testing.
# The FST is currently the most widely used animal model for assessing depression related behavior and antidepressant drug activity in rodents (Cryan et al., Neubiorev. 2005). Rats are placed in an inescapable cylinder of water where they develop an immobile posture believed to reflect a “depressive”-like state. The time rats spend immobile is decreased by drugs exerting antidepressant activity.
# Additional behaviors can be detected in the FST; namely, climbing and swimming. It has been shown that swimming behavior is sensitive to SSRIs such as fluoxetine whereas climbing is sensitive to norepinephrine re-uptake inhibitors (NRI) such as desipramine.
# [9] = 40 μM, compared to control kinetics with solvent alone
# Chain of purified tubulin and MAP2 (P11137 whole entry): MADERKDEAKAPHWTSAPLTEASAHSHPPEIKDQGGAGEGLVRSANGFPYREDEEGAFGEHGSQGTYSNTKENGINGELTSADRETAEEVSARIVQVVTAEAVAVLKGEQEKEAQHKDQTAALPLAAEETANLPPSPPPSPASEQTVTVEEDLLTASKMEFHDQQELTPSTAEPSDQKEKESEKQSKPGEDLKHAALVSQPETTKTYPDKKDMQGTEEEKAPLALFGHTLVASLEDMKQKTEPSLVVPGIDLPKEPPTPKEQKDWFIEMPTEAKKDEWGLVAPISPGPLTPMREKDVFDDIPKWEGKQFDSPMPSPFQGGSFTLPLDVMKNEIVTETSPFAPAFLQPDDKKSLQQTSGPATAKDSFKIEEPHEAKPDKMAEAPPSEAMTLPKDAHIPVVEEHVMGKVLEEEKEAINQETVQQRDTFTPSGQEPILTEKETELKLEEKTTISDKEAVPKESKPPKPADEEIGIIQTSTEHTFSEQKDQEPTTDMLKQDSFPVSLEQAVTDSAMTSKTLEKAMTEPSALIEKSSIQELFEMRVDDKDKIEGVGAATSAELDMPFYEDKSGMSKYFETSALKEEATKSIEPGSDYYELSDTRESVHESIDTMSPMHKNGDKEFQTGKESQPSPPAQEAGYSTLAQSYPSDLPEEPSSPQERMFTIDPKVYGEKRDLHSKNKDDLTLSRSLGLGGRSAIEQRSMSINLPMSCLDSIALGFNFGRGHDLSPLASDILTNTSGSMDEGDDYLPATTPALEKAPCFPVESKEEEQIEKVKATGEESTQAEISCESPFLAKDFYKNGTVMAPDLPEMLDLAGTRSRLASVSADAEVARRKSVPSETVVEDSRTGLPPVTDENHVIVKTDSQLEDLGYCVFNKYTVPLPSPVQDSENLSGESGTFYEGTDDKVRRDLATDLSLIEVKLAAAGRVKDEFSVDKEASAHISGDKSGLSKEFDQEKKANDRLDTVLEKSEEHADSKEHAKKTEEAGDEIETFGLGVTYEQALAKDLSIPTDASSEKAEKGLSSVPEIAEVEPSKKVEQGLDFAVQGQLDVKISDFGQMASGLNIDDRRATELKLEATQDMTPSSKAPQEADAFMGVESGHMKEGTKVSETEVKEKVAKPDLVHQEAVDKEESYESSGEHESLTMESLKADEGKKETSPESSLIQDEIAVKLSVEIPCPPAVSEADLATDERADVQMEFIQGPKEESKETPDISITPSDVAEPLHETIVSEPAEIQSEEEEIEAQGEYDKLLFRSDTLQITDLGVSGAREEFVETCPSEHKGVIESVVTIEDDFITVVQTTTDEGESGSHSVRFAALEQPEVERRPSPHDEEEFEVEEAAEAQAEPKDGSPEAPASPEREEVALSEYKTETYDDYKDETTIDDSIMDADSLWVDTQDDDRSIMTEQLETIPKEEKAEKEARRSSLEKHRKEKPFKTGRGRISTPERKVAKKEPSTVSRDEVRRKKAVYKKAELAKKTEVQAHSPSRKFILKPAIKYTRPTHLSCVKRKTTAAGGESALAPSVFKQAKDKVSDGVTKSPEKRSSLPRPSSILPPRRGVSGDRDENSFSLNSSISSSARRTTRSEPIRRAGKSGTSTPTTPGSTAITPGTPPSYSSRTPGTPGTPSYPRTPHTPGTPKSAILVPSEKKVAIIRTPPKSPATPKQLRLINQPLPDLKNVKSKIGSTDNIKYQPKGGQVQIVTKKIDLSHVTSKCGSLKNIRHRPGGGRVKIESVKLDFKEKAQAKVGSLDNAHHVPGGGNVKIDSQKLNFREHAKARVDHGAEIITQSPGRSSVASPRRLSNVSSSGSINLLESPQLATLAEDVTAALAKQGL
# Chain of MAP2 (P11137 whole entry): as above
Compound,Activity (increase in optical density at 345 nm) [1],Affinity (index of binding) (MAP2),other results
CO[C@H]1CC[C@@]2(C)C(=CC[C@@H]3[C@@H]2CC[C@@]2(C)[C@H]3CC[C@@]2(C(C)=O)C(Cl)Cl)C1 [3β-methoxy-pregna-5-ene-20-one-17α-dichloromethyl],113% of PREG,53% of PREG,–
CO[C@H]1CC[C@@]2(C)[C@@H](CC[C@@H]3[C@@H]2CC[C@]2(C)[C@@H](C(C)=O)CC[C@@H]32)C1 [3β-methoxy-5α-pregnane-20-one],10% of PREG,87% of PREG,–
CNCCC(Oc1ccc(C(F)(F)F)cc1)c1ccccc1 (stereo not shown) [fluoxetine],–,–,Acet-Tub (marker of stable microtubules) [2]: tendency to increase; Tyr/Glu-Tub ratio (index of microtubule dynamics) [2]: did not change
"CC(=O)O[C@H](C)[C@H]1CC[C@H]2[C@@H]3CC=C4C[C@@H](O)CC[C@]4(C)[C@H]3CC[C@]12C [Pregna-5-ene-3β,20β-diol-20-acetate]",108% of PREG,60% of PREG,–
CC(=O)[C@H]1[C@H](C)C[C@H]2[C@@H]3CC=C4C[C@@H](O)CC[C@]4(C)[C@H]3CC[C@@]21C [PREG-16α-methyl],70% of PREG,80% of PREG,–
"CC(=O)[C@H]1CC[C@H]2[C@@H]3CCC4=CC(=O)CC[C@]4(C)[C@H]3CC[C@]12C [progesterone, reference compound]",–,–,effect on microtubule polymerization [1]: do not stimulate polymerization; progesterone receptor agonist (transactivation) activity [3]: permits a transactivation activity
CC(=O)[C@H]1[C@H](C)C[C@H]2[C@@H]3CC[C@H]4C[C@@H](O)CC[C@]4(C)[C@H]3CC[C@@]21C [3β-hydroxy-5α-pregnane-20-one-16α-methyl],53% of PREG,57% of PREG,–
"CO[C@H]1CC[C@@]2(C)C(=CC[C@H]3C4=CC[C@H](C(C)=O)[C@@]4(C)CC[C@@H]32)C1 [3β-methoxy-pregna-5,14-diene-20-one]",50% of PREG,102% of PREG,–
CC(=O)[C@H]1[C@@H](C)C[C@H]2[C@@H]3CC=C4C[C@@H](O)CC[C@]4(C)[C@H]3CC[C@@]21C [PREG-16β-methyl],67% of PREG,63% of PREG,–
"PREG-16α,17α-epoxy",54% of PREG,41% of PREG,–
"CC(=O)[C@H]1CC[C@H]2[C@@H]3CC=C4C[C@@H](O)CC[C@]4(C)[C@H]3CC[C@]12C [PREG, Pregnenolone]",100% of PREG,–,"Lag time of microtubule polymerization [1, 9]: decreased; polymerization rate and quantity of microtubules [1, 9]: clearly increase; effect on microtubule polymerization [1]: activates microtubule polymerization; increase in the average length of the neurites (PC12 cells [4]): 60%; resistance of neurites to nocodazole (PC12 cells [5]): makes the neurites resistant to nocodazole; cell death caused by okadaic acid (LDH release) [6]: Cell death is decreased; cellular toxicity (PC12 cell line): do not demonstrate toxicity; motor dysfunction (RotaRod) [7]: Only the 3-methoxy-PREG had a beneficial effect; Acet-Tub (marker of stable microtubules) [2]: significantly decreased; rat climbing behavior in the FST [8]: not changed; rat swimming in the FST [8]: significantly increased"
"CC(=O)[C@@]12C[C@@H]1C[C@H]1[C@@H]3CC=C4C[C@@H](O)CC[C@]4(C)[C@H]3CC[C@@]12C [PREG-16α,17α-methylene]",49% of PREG,62% of PREG,–
pregnenolone sulfate [reference compound],–,–,effect on microtubule polymerization [1]: do not stimulate polymerization
CO[C@H]1CC[C@@]2(C)C(CCC3C2CC[C@@]2(C)C3CC[C@@H]2[C@@H](C)O)C1 (stereo partly drawn) [3β-methoxy-5α-pregnane-20β-ol],65% of PREG,65% of PREG,–
